US10736883B2, “Triazole furan compounds as agonists of the APJ receptor” (AMGEN INC., priority 2016, dated 2020)

biological target: APJ receptor (Homo sapiens (Human), UniProt P35414); assay: [35S]GTPγS binding assay on membranes from CHO cells stably expressing human APJ receptor; assay type: biochemical; settings: membranes of CHO cells stably expressing human APJ receptor, means of several independent experiments, read-out: Activity hAPJ SPA EC50 IP
Summary of the method: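 Membranes from CHO cells stably expressing human APJ were incubated with 0.2 nM [35S]GTPγS and ligands for 90 min at RT in 20 mM HEPES pH 7.5, 5 mM MgCl2, 200 mM NaCl, 3 μM GDP, 0.1% BSA with WGA PS beads. Nonspecific binding was set with 100 μM GTPγS. EC50 came from non-linear regression.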

Chain of APJ receptor (P35414 whole entry): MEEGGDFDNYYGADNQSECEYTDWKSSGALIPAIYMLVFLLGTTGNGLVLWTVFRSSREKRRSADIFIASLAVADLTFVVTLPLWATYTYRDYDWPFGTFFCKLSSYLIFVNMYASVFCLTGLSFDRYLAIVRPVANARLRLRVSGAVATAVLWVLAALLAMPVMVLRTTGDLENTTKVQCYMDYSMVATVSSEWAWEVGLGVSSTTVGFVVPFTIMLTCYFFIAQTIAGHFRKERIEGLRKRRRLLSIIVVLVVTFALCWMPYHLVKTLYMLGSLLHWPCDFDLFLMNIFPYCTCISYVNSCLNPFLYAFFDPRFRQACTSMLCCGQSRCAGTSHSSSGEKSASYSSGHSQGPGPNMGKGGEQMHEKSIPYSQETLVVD

EC50 | Molecule
0.074 nM | (1R,2S)-1-(5-chloro-2-pyrimidinyl)-N-(4-(2,6-dimethoxyphenyl)-5-(5-methyl-2-furanyl)-4H-1,2,4-triazol-3-yl)-1-hydroxy-2-propanesulfonamide or (1S,2R)-1-(5-chloro-2-pyrimidinyl)-N-(4-(2,6-dimethoxyphenyl)-5-(5-methyl-2-furanyl)-4H-1,2,4-triazol-3-yl)-1-hydroxy-2-propanesulfonamide [Example 212.0]
230 nM | C[C@@H](Cc1ncc(F)cn1)S(=O)(=O)Nc1nnc(-c2ccco2)n1-c1cccc2ccccc12 (mixture of isomers) [Example 314.0, (2R)-1-(5-Fluoro-2-pyrimidinyl)-N-(5-(2-furanyl)-4-(1-naphthalenyl)-4H-1,2,4-triazol-3-yl)-2-propanesulfonamide and (2S)-1-(5-fluoro-2-pyrimidinyl)-N-(5-(2-furanyl)-4-(1-naphthalenyl)-4H-1,2,4-triazol-3-yl)-2-propanesulfonamide]
1.6 nM | COc1cccc(OC)c1-n1c(NS(=O)(=O)[C@H](C)[C@@H](O)c2coc(C)n2)nnc1-c1ccc(C)o1 (racemic) [Example 284.0, (1R,2S)—N-(4-(2,6-Dimethoxyphenyl)-5-(5-methyl-2-furanyl)-4H-1,2,4-triazol-3-yl)-1-hydroxy-1-(2-methyl-1,3-oxazol-4-yl)-2-propanesulfonamide and (1S,2R)—N-(4-(2,6-dimethoxyphenyl)-5-(5-methyl-2-furanyl)-4H-1,2,4-triazol-3-yl)-1-hydroxy-1-(2-methyl-1,3-oxazol-4-yl)-2-propanesulfonamide]
0.87 nM | COc1cccc(OC)c1-n1c(NS(=O)(=O)[C@@H](C)[C@](C)(N)c2ncc(F)cn2)nnc1-c1ccc(C)o1 (single isomer, unassigned) [Example 243.0]
0.48 nM | COC[C@@H](Cc1ncc(F)cn1)S(=O)(=O)Nc1nnc(-c2ccc(C)o2)n1-c1c(OC)cccc1OC (single isomer, unassigned) [Example 72.0, (2R)—N-(4-(2,6-Dimethoxyphenyl)-5-(5-methyl-2-furanyl)-4H-1,2,4-triazol-3-yl)-1-(5-fluoro-2-pyrimidinyl)-3-methoxy-2-propanesulfonamide or (2S)—N-(4-(2,6-dimethoxyphenyl)-5-(5-methyl-2-furanyl)-4H-1,2,4-triazol-3-yl)-1-(5-fluoro-2-pyrimidinyl)-3-methoxy-2-propanesulfonamide]
0.2 nM | COc1cccc(OC)c1-n1c(NS(=O)(=O)[C@H]2C[C@@H](O)CN(c3ncc(F)cn3)C2)nnc1-c1ccc(C)o1 (single isomer, unassigned) [Example 323.0, (3S,5R)—N-(4-(2,6-Dimethoxyphenyl)-5-(5-methyl-2-furanyl)-4H-1,2,4-triazol-3-yl)-1-(5-fluoro-2-pyrimidinyl)-5-hydroxy-3-piperidinesulfonamide or (3R,5S)—N-(4-(2,6-dimethoxyphenyl)-5-(5-methyl-2-furanyl)-4H-1,2,4-triazol-3-yl)-1-(5-fluoro-2-pyrimidinyl)-5-hydroxy-3-piperidinesulfonamide]
0.22 nM | COC[C@H]1CCCC(=O)N1C[C@@H](C)S(=O)(=O)Nc1nnc(-c2ccc(C)o2)n1-c1c(OC)cccc1OC (single isomer, unassigned) [Example 150.0]
1.2 nM | COc1cccc(OC)c1-n1c(NS(=O)(=O)[C@H](C)Cc2ccc(C#N)cn2)nnc1-c1ccco1 (single isomer, unassigned) [Example 30.0, (2R)-1-(5-cyano-2-pyridinyl)-N-(4-(2,6-dimethoxyphenyl)-5-(2-furanyl)-4H-1,2,4-triazol-3-yl)-2-propanesulfonamide or (2S)-1-(5-cyano-2-pyridinyl)-N-(4-(2,6-dimethoxyphenyl)-5-(2-furanyl)-4H-1,2,4-triazol-3-yl)-2-propanesulfonamide]
0.94 nM | COc1cccc(OC)c1-n1c(NS(=O)(=O)[C@H]2C[C@@H](O)CN(c3ncc(F)cn3)C2)nnc1-c1ccco1 (single isomer, unassigned) [Example 167.0, (3S,5R)—N-(4-(2,6-Dimethoxyphenyl)-5-(2-furanyl)-4H-1,2,4-triazol-3-yl)-1-(5-fluoro-2-pyrimidinyl)-5-hydroxy-3-piperidinesulfonamide or (3R,5S)—N-(4-(2,6-dimethoxyphenyl)-5-(2-furanyl)-4H-1,2,4-triazol-3-yl)-1-(5-fluoro-2-pyrimidinyl)-5-hydroxy-3-piperidinesulfonamide]
0.18 nM | COc1cccc(OC)c1-n1c(NS(=O)(=O)[C@@H](C)[C@H](O)c2cn3ccccc3n2)nnc1-c1ccc(C)o1 (single isomer, unassigned) [Example 265.0, (1R,2S)—N-(4-(2,6-Dimethoxyphenyl)-5-(5-methyl-2-furanyl)-4H-1,2,4-triazol-3-yl)-1-hydroxy-1-imidazo[1,2-a]pyridin-2-yl-2-propanesulfonamide or (1S,2R)—N-(4-(2,6-dimethoxyphenyl)-5-(5-methyl-2-furanyl)-4H-1,2,4-triazol-3-yl)-1-hydroxy-1-imidazo[1,2-a]pyridin-2-yl-2-propanesulfonamide]

More lines, now with the values behind:

Molecule | EC50
COc1cccc(OC)c1-n1c(NS(=O)(=O)[C@@H](C)[C@H](O)c2cccc3nccn23)nnc1-c1ccc(C)o1 (single isomer, unassigned) [Example 299.0, (1R,2S)—N-(4-(2,6-Dimethoxyphenyl)-5-(5-methyl-2-furanyl)-4H-1,2,4-triazol-3-yl)-1-hydroxy-1-imidazo[1,2-a]pyridin-5-yl-2-propanesulfonamide or (1S,2R)—N-(4-(2,6-dimethoxyphenyl)-5-(5-methyl-2-furanyl)-4H-1,2,4-triazol-3-yl)-1-hydroxy-1-imidazo[1,2-a]pyridin-5-yl-2-propanesulfonamide] | 11 nM
COc1cccc(OC)c1-n1c(NS(=O)(=O)[C@H](C)CN2C(=O)CCC[C@]2(C)C#N)nnc1-c1ccco1 (single isomer, unassigned) [Example 342.0] | 121 nM
COc1cccc(OC)c1-n1c(NS(=O)(=O)[C@H]2C[C@@H](O)CN(c3cncc(C#N)c3)C2)nnc1-c1ccc(C)o1 [Example 334.0, (3S,5R)-1-(5-Cyanopyridin-3-yl)-N-(4-(2,6-dimethoxyphenyl)-5-(5-methylfuran-2-yl)-4H-1,2,4-triazol-3-yl)-5-hydroxypiperidine-3-sulfonamide and (3S,5R)-1-(5-cyanopyridin-3-yl)-N-(4-(2,6-dimethoxyphenyl)-5-(5-methylfuran-2-yl)-4H-1,2,4-triazol-3-yl)-5-hydroxypiperidine-3-sulfonamide] | 0.47 nM
COc1cccc(OC)c1-n1c(NS(=O)(=O)[C@H](C)Cc2cnc(C)cn2)nnc1-c1ccc(C)o1 (single isomer, unassigned) [Example 24.0, (2R)—N-(4-(2,6-dimethoxyphenyl)-5-(5-methyl-2-furanyl)-4H-1,2,4-triazol-3-yl)-1-(5-methyl-2-pyrazinyl)-2-propanesulfonamide or (2S)—N-(4-(2,6-dimethoxyphenyl)-5-(5-methyl-2-furanyl)-4H-1,2,4-triazol-3-yl)-1-(5-methyl-2-pyrazinyl)-2-propanesulfonamide] | 0.36 nM
COc1cccc(OC)c1-n1c(NS(=O)(=O)CCc2ncc(Cl)cc2CCN2CCOCC2)nnc1-c1ccco1 [Example 239.0, 2-(5-Chloro-3-(2-(4-morpholinyl)ethyl)-2-pyridinyl)-N-(4-(2,6-dimethoxyphenyl)-5-(2-furanyl)-4H-1,2,4-triazol-3-yl)ethanesulfonamide] | 0.6 nM
COc1cccc(OC)c1-n1c(NS(=O)(=O)CCc2ccc(F)cc2C#N)nnc1-c1ccc(C(F)(F)F)o1 [Example 131.0, 2-(2-Cyano-4-fluorophenyl)-N-(4-(2,6-dimethoxyphenyl)-5-(5-(trifluoromethyl)furan-2-yl)-4H-1,2,4-triazol-3-yl)ethanesulfonamide] | 3.9 nM
COc1cccc(OC)c1-n1c(NS(=O)(=O)[C@@H](C)[C@@](C)(O)c2ccc(C#N)cn2)nnc1-c1ccc(C)o1 (single isomer, unassigned) [Example 227.0] | 0.35 nM
COc1cccc(OC)c1-n1c(NS(=O)(=O)[C@@H]2COCC[C@@H]2O)nnc1-c1ccc(C)o1 (single isomer, unassigned) [Example 405.0] | 64 nM
COc1cccc(OC)c1-n1c(NS(=O)(=O)[C@H](C)Cc2ncc(F)cn2)nnc1-c1cc(C)c(C)o1 (single isomer, unassigned) [Example 89.0, (R)—N-(4-(2,6-Dimethoxyphenyl)-5-(4,5-dimethylfuran-2-yl)-4H-1,2,4-triazol-3-yl)-1-(5-fluoropyrimidin-2-yl)propane-2-sulfonamide or (S)—N-(4-(2,6-dimethoxyphenyl)-5-(4,5-dimethylfuran-2-yl)-4H-1,2,4-triazol-3-yl)-1-(5-fluoropyrimidin-2-yl)propane-2-sulfonamide] | 1.9 nM
[2H]C([2H])([2H])c1ccc(-c2nnc(NS(=O)(=O)[C@@H](C)[C@H](C)c3ncc(F)cn3)n2-c2c(OC)ncnc2OC)o1 [Example 395.0, (2S,3R)—N-(4-(4,6-Dimethoxy-5-pyrimidinyl)-5-(5-trideuteromethyl-2-furanyl)-4H-1,2,4-triazol-3-yl)-3-(5-fluoro-2-pyrimidinyl)-2-butanesulfonamide] | 0.26 nM
CC[C@H](Cc1ncc(F)cn1)S(=O)(=O)Nc1nnc(-c2ccc(C)o2)n1-c1c(OC)cccc1OC (single isomer, unassigned) [Example 134.0, (R)—N-(4-(2,6-dimethoxyphenyl)-5-(5-methylfuran-2-yl)-4H-1,2,4-triazol-3-yl)-1-(5-fluoropyrimidin-2-yl)butane-2-sulfonamide or (S)—N-(4-(2,6-dimethoxyphenyl)-5-(5-methylfuran-2-yl)-4H-1,2,4-triazol-3-yl)-1-(5-fluoropyrimidin-2-yl)butane-2-sulfonamide] | 10 nM
